Biological target: Factor D (Homo sapiens (Human), UniProt P00746)
Assay: Factor D esterolytic assay
Format: biochemical
Settings: Z-Lys-SBzl substrate, 100 mM HEPES, 500 mM NaCl, pH 7.5, 10% DMSO; tested a minimum of three times; read-out: Measured Ki (IC50) Value for Compounds: IC50
Method in brief: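 Buffer was 100 mM HEPES, 500 mM NaCl, pH 7.5 with 10% DMSO. Compound and Factor D were combined, then Z-Lys-SBzl (1.29 mM) was added either at once or following room-temperature incubation. Rates came from DTNB colour at 405 nm minus 690 nm over 600 s, with percent inhibition giving IC50 over at least three tests.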

Factor D, sequence (P00746 26-253): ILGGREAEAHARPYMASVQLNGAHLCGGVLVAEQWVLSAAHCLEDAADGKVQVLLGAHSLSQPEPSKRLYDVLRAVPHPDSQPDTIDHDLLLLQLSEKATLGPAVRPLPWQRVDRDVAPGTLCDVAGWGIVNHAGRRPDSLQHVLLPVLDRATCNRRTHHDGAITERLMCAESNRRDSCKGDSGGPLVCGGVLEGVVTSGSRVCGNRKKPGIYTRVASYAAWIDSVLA

Row | SMILES | IC50 [nM]
1 | CC(C)(C)OC(=O)Nc1cccc(CC(=O)O)c1OCc1coc2ccc(-c3cccc(CN)c3)cc12 [Compound 91a, 2-(2-((5-(3-(aminomethyl)phenyl)benzofuran-3-yl)methoxy)-3-((tert-butoxycarbonyl)amino)phenyl)acetic acid] | < 1000
2 | NCc1cccc(-c2ccc3occ(COc4c(F)cccc4CC(=O)O)c3c2)c1F [Compound 46b, 2-(2-((5-(3-(aminomethyl)-2-fluorophenyl)benzofuran-3-yl)methoxy)-3-fluorophenyl)acetic acid] | < 1000
3 | Cn1cncc1COc1cc(-c2cccc(CN)c2)cc2c(COc3ccccc3CC(=O)O)coc12 [Compound 199f, 2-(2-((5-(3-(aminomethyl)phenyl)-7-((1-methyl-1H-imidazol-5-yl)methoxy)benzofuran-3-yl)methoxy)phenyl)acetic acid] | < 1000
4 | COc1cccc(OCc2coc3ccc(-c4cccc(CN)c4)cc23)c1CC(=O)O [Compound 109d, 2-(2-((5-(3-(aminomethyl)phenyl)benzofuran-3-yl)methoxy)-6-methoxyphenyl)acetic acid] | 1000 to 10000
5 | Cc1ccc(CC(=O)O)c(OCc2nn(C(C)C)c3ccc(-c4cccc(CN)c4)cc23)c1 [Compound 254c, 2-(2-((5-(3-(aminomethyl)phenyl)-1-isopropyl-1H-indazol-3-yl)methoxy)-4-methylphenyl)acetic acid] | < 1000
6 | COc1c(-c2cc3c(COc4ccccc4CC(=O)O)cccc3o2)ccnc1CN [Compound 329d, 2-(2-((2-(2-(aminomethyl)-3-methoxypyridin-4-yl)benzofuran-4-yl)methoxy)phenyl)acetic acid] | 1000 to 10000
7 | CC(C)n1nc(COc2ccccc2CC(=O)O)c2cc(-c3ccc(CN)cc3)ccc21 [Compound 311c, 2-(2-((5-(4-(aminomethyl)phenyl)-1-isopropyl-1H-indazol-3-yl)methoxy)phenyl)acetic acid] | > 10000
8 | NCc1cccc(-c2ccc3occ(COc4cc(C5CC5)ccc4CC(=O)O)c3c2)c1 [Compound 111d, 2-(2-((5-(3-(aminomethyl)phenyl)benzofuran-3-yl)methoxy)-4-cyclopropylphenyl)acetic acid] | < 1000
9 | CC(C)(C)OC(=O)n1cc(Cc2cccc(CC(=O)O)c2O)c2cc(-c3cccc(CN)c3)ccc21 [Compound 75e, 2-(3-((5-(3-(aminomethyl)phenyl)-1-(tert-butoxycarbonyl)-1H-indol-3-yl)methyl)-2-hydroxyphenyl)acetic acid] | > 10000
10 | NCc1cccc(-c2cccc3cc(COc4cccc(CC(=O)O)c4)oc23)c1 [Compound 34c, 2-(3-((7-(3-(aminomethyl)phenyl)benzofuran-2-yl)methoxy)phenyl)acetic acid] | > 10000
11 | NCc1cccc(-c2cc(NCc3cccnc3)c3occ(COc4ccccc4CC(=O)O)c3c2)c1 [Compound 187d, 2-(2-((5-(3-(aminomethyl)phenyl)-7-((pyridin-3-ylmethyl)amino)benzofuran-3-yl)methoxy)phenyl)acetic acid] | < 1000
12 | NCc1cccc(-c2ccc3scc(COc4ccccc4CC(=O)O)c3c2)c1 [Compound 101d, 2-(2-((5-(3-(aminomethyl)phenyl)benzo[b]thiophen-3-yl)methoxy)phenyl)acetic acid] | < 1000
13 | CC(C)n1nc(COc2ccccc2CC(=O)O)c2cc(-c3cccc([C@@H](C)N)c3)ccc21 [Compound 323b, (R)-2-(2-((5-(3-(1-aminoethyl)phenyl)-1-isopropyl-1H-indazol-3-yl)methoxy)phenyl)acetic acid] | < 1000
14 | NCc1cccc(-c2cc3c(COc4ccccc4CC(=O)O)coc3c3occc23)c1 [Compound 229g, 2-(2-((5-(3-(aminomethyl)phenyl)benzo[1,2-b:6,5-b′]difuran-3-yl)methoxy)phenyl)acetic acid] | < 1000
15 | COc1ccc(CC(=O)O)c(OCc2c(C)oc3ccc(-c4cccc(CN)c4O)cc23)c1 [Compound 244d, 2-(2-((5-(3-(aminomethyl)-2-hydroxyphenyl)-2-methylbenzofuran-3-yl)methoxy)-4-methoxyphenyl)acetic acid] | < 1000
16 | NCc1cccc(-c2ccc3occ(COc4c(CC(=O)O)cccc4C(=O)O)c3c2)c1 [Compound 301d, 2-((5-(3-(aminomethyl)phenyl)benzofuran-3-yl)methoxy)-3-(carboxymethyl)benzoic acid] | < 1000
17 | NCc1cccc(-c2cccc3cc(C(=O)Nc4ccccc4CC(=O)O)oc23)c1 [Compound 21b, 2-(2-(7-(3-(aminomethyl)phenyl)benzofuran-2-carboxamido)phenyl)acetic acid] | 1000 to 10000
18 | Cc1ncc(-c2cc(-c3cccc(CN)c3)cc3c(COc4ccccc4CC(=O)O)coc23)cn1 [Compound 165c, 2-(2-((5-(3-(aminomethyl)phenyl)-7-(2-methylpyrimidin-5-yl)benzofuran-3-yl)methoxy)phenyl)acetic acid] | < 1000

Row | SMILES | IC50 [nM]
19 | NCc1cccc(-c2cc(OCc3ccccn3)c3occ(COc4ccccc4CC(=O)O)c3c2)c1 [Compound 195f, 2-(2-((5-(3-(aminomethyl)phenyl)-7-(pyridin-2-ylmethoxy)benzofuran-3-yl)methoxy)phenyl)acetic acid] | < 1000
20 | CCc1oc2ccc(-c3cccc(CN)c3)cc2c1COc1cc(OC)ccc1CC(=O)O [Compound 225e, 2-(2-((5-(3-(aminomethyl)phenyl)-2-ethylbenzofuran-3-yl)methoxy)-4-methoxyphenyl)acetic acid] | < 1000
21 | NCc1cccc(-c2ccc3occ(COc4cc(N)ccc4CC(=O)O)c3c2)c1 [Compound 84b, 2-(4-amino-2-((5-(3-(aminomethyl)phenyl)benzofuran-3-yl)methoxy)phenyl)acetic acid] | < 1000
22 | NCc1cccc(-c2cc(CNCC3CC3)c3occ(COc4ccccc4CC(=O)O)c3c2)c1 [Compound 209c, 2-(2-((5-(3-(aminomethyl)phenyl)-7-(((cyclopropylmethyl)amino)methyl)benzofuran-3-yl)methoxy)phenyl)acetic acid] | < 1000
23 | NCc1cccc(-c2cc(C(=O)O)cc3cc(COc4ccccc4CC(=O)O)oc23)c1 [Compound 37b, 7-(3-(aminomethyl)phenyl)-2-((2-(carboxymethyl)phenoxy)methyl)benzofuran-5-carboxylic acid] | 1000 to 10000
24 | NCc1cccc(-c2cc(COc3ccccc3CC(=O)O)cc3cc(CCOc4ccccc4CC(=O)O)oc23)c1 [Compound 20j, 2-(2-((7-(3-(aminomethyl)phenyl)-2-(2-(2-(carboxymethyl)phenoxy)ethyl)benzofuran-5-yl)methoxy)phenyl)acetic acid] | < 1000
25 | COc1ccc(CC(=O)O)c(OCc2nn(C)c3ccc(-c4cccc(CN)c4)cc23)c1 [Compound 185c, 2-(2-((5-(3-(aminomethyl)phenyl)-1-methyl-1H-indazol-3-yl)methoxy)-4-methoxyphenyl)acetic acid] | < 1000
26 | COc1ccc(CC(=O)O)c(OCc2coc3ccc(-c4ccnc(CN)c4F)cc23)c1 [Compound 71d, 2-(2-((5-(2-(aminomethyl)-3-fluoropyridin-4-yl)benzofuran-3-yl)methoxy)-4-methoxyphenyl)acetic acid] | < 1000
27 | COc1ccc(CC(=O)O)c(OCc2c(C)oc3ccc(-c4cccc([C@@H](C)N)c4)cc23)c1 [Compound 242b, (R)-2-(2-((5-(3-(1-aminoethyl)phenyl)-2-methylbenzofuran-3-yl)methoxy)-4-methoxyphenyl)acetic acid] | < 1000
28 | COc1ccc(CC(=O)O)c(OCc2c(C)oc3ccc(-c4cccc(CN)c4)cc23)c1 [Compound 138c, 2-(2-((5-(3-(aminomethyl)phenyl)-2-methylbenzofuran-3-yl)methoxy)-4-methoxyphenyl)acetic acid] | < 1000
29 | CN(Cc1cc(-c2cccc(CN)c2)cc2c(COc3ccccc3CC(=O)O)coc12)C1CC1 [Compound 261e, 2-(2-((5-(3-(aminomethyl)phenyl)-7-((cyclopropyl(methyl)amino)methyl)benzofuran-3-yl)methoxy)phenyl)acetic acid] | < 1000
30 | NCc1cccc(-c2ccc3onc(COc4ccccc4CC(=O)O)c3c2)c1 [Compound 88e, 2-(2-((5-(3-(aminomethyl)phenyl)benzo[d]isoxazol-3-yl)methoxy)phenyl)acetic acid] | < 1000
31 | NCc1nccc(-c2cc(COc3ccccc3CC(=O)O)cc3cc(COc4ccccc4CC(=O)O)oc23)c1F [Compound 28d, 2,2′-((((7-(2-(aminomethyl)-3-fluoropyridin-4-yl)benzofuran-2,5-diyl)bis(methylene))bis(oxy))bis(2,1-phenylene))diacetic acid] | < 1000
32 | COc1ccc(CC(=O)O)c(OCc2coc3c(OCC4CC4)cc(-c4cccc(CN)c4)cc23)c1 [Compound 160c, 2-(2-((5-(3-(aminomethyl)phenyl)-7-(cyclopropylmethoxy)benzofuran-3-yl)methoxy)-4-methoxyphenyl)acetic acid] | < 1000
33 | CN(C)Cc1cc(-c2cccc(CN)c2)cc2c(COc3ccccc3CC(=O)O)coc12 [Compound 82e, 2-(2-((5-(3-(aminomethyl)phenyl)-7-((dimethylamino)methyl)benzofuran-3-yl)methoxy)phenyl)acetic acid] | < 1000
34 | N#Cc1cccc(CC(=O)O)c1OCc1coc2ccc(-c3cccc(CN)c3)cc12 [Compound 115c, 2-(2-((5-(3-(aminomethyl)phenyl)benzofuran-3-yl)methoxy)-3-cyanophenyl)acetic acid] | < 1000
35 | NCc1cccc(-c2cc(C(O)C(F)(F)F)c3occ(COc4ccccc4CC(=O)O)c3c2)c1 (centres unmarked) [Compound 257h, 2-(2-((5-(3-(aminomethyl)phenyl)-7-(2,2,2-trifluoro-1-hydroxyethyl)benzofuran-3-yl)methoxy)phenyl)acetic acid] | < 1000
